According to publication PMC9165293, “Characterization in nonhuman primates of (R)-[^18F]OF-Me-NB1 and (S)-[^18F]OF-Me-NB1 for imaging the GluN2B subunits of the NMDA receptor” (European Journal of Nuclear Medicine and Molecular Imaging, 2022):
Several values for one entry are separate records, joined by “and”; a condition that tells them apart may be missing. Equal values may be shown once. Read-outs that look alike come from different tables or passages of the source. One block for each molecule: values may come before it.

Tests used:
[1] = Plasma free fraction (fP) by ultrafiltration; format: in vitro ADME, rhesus monkeys; details: monkey plasma
Procedure: The ultrafiltration method was used for measuring the unbound portion (free fraction) of [^18F]OF-Me-NB1 in plasma as previously described. The fP was determined as the ratio of the radioactivity concentration in the filtrate to the total activity in plasma. Measurements of fP were performed in triplicate for each scan.

[2] = Plasma metabolite analysis (parent fraction over time); format: in vivo, rhesus monkeys; details: for Parent fraction of total plasma activity: baseline scans; for Effect of pretreatment on parent fraction of (R)-[^18F]OF-Me-NB1 in plasma: blocking scans
Procedure: Measurements of plasma activity and parent fraction over time were performed as previously described. Arterial or venous blood samples were collected at preselected time points and assayed for radioactivity in whole blood and plasma with cross-calibrated gamma counters (Wizard 1480/2480, Perkin Elmer, Waltham, MA, USA). The volume of the whole blood or plasma (50–200 µL) was determined by the weight of the sample. Parent fraction was calculated as the ratio of the total radioactivity in fractions containing the parent compound to the total amount of radioactivity collected and fitted with an inverted gamma function and corrected for filtration efficiency. The arterial plasma input function (AIF) was then calculated as the product of the total counts in the plasma and the interpolated parent fraction at each time point.

[3] = biological target: T1, GluN2B subunits of the NMDA receptor (Macaca mulatta, UniProt F6T8S6); experiment: PET imaging in rhesus monkeys, baseline scans with kinetic modeling; format: in vivo, rhesus monkeys (Macaca mulatta); details: for Peak uptake SUV across brain regions / Time to peak brain uptake after tracer injection: baseline scan, monkey brain; for BPND, cerebellum / BPND, cingulate cortex / BPND, frontal cortex / BPND, hippocampus / BPND, semiovale / BPND, thalamus: from baseline VT and VND of Co101,244 occupancy plot; for VT, cerebellum / VT, cingulate cortex / VT, frontal cortex / VT, hippocampus / VT, semiovale / VT, thalamus: baseline, MA1
T1 construct: consistent with the pattern of GluN2B expression in the monkey brain; from tissue; host or cells: brain of living rhesus monkeys (in vivo PET)
T1 sequence (F6T8S6 29-1484): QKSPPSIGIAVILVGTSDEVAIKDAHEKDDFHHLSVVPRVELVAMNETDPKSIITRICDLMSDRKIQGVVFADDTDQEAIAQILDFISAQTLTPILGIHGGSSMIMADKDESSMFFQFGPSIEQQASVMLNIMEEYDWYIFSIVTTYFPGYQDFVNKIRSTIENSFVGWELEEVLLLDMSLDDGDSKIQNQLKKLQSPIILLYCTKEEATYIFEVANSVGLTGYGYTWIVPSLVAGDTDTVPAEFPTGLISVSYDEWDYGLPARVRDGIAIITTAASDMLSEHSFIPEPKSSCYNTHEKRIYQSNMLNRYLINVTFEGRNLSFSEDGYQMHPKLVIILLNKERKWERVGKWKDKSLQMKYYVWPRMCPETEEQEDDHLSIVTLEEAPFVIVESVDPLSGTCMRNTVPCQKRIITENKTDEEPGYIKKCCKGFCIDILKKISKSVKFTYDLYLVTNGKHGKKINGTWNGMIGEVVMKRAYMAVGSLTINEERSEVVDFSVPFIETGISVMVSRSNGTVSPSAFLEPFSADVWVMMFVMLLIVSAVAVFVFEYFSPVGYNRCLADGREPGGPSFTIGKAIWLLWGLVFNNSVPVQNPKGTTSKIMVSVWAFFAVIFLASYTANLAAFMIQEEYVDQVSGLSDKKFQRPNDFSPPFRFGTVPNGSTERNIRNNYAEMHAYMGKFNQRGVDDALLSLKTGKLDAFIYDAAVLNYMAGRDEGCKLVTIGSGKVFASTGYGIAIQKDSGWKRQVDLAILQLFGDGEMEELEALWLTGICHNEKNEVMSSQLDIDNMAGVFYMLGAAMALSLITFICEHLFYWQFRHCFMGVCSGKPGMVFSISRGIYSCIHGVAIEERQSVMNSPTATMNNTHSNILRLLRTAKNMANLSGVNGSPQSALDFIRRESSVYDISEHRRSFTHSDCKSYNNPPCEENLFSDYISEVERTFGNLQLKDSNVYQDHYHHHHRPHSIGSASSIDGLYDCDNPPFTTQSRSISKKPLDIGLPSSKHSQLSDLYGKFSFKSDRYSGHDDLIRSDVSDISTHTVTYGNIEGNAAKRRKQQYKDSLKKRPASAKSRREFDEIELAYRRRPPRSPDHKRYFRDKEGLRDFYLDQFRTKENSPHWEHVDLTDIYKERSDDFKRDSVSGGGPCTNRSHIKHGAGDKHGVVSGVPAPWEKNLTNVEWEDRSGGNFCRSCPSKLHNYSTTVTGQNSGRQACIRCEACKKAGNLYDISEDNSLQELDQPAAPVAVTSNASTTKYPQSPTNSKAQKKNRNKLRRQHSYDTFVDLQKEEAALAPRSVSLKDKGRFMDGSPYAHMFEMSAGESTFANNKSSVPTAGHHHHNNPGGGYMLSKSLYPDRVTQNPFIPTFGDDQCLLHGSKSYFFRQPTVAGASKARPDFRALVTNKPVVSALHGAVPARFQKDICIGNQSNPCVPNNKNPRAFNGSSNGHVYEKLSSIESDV
Procedure: (§1) A total of seven PET scans in two monkeys were acquired. Each monkey underwent one baseline scan with (R)-[^18F]OF-Me-NB1, and two blocking scans at 10 min after the injection of the GluN2B antagonist Co-101,244 (0.25 mg/kg) or the sigma-1 antagonist FTC-146 (0.027 and 0.125 mg/kg). Co-101,244 and FTC-146 were previously used by Cai et al. to determine the in vivo binding specificity and selectivity of a radiotracer from the same scaffold, [^11C]NR2B-SMe, in rodents. In addition, a baseline scan with (S)-[^18F]OF-Me-NB1 was also performed in one monkey. All procedures were approved by the Yale University Institutional Animal Care and Use Committee.
(§2) Animals were sedated with a combination of alfaxalone (2 mg/kg), midazolam (0.3 mg/kg), and dexmedetomidine (0.01 mg/kg) and maintained in an anesthetized state with 1.5–2.5% isoflurane in oxygen. Heart rate, blood pressure, respiration rate, oxygen saturation, and respiration rate were monitored continuously. An arterial line was placed in the radial artery for blood sampling.
Dynamic PET data were acquired on the Focus 220 scanner (Siemens Medical Solutions, Knoxville, TN, USA). Before radiotracer injection, a 9 min transmission scan was obtained for attenuation correction. The radiotracer (10 mL) was administered intravenously as a slow bolus over 3 min. Emission data were collected in list mode for 90 or 120 min and binned into frames of increasing durations (6 × 30 s, 3 × 1 min, 2 × 2 min, and […]).
High-resolution magnetic resonance images were acquired with a Siemens 3 T Trio scanner for the region of interest (ROI) definition. PET emission data were attenuation-corrected using the transmission scan, then reconstructed using a Fourier rebinning and filtered back-projection algorithm. PET images summed from the first 10 min of each scan were registered to the anatomical MR image. Inverted transformations were applied to register an atlas ROI mask to the PET image, and time-activity curves (TACs) were extracted from each ROI: frontal, occipital, temporal, cingulate and insular cortex, caudate, putamen, globus pallidus, nucleus accumbens, amygdala, hippocampus, thalamus, pons, substantia nigra, cerebellum, and centrum semiovale.
(§3) Kinetic parameters were determined by fitting the regional TACs and metabolite-corrected arterial input functions to the one-tissue compartment (1TC) and two-tissue compartment (2TC) models, as well as the multilinear analysis 1 (MA1) method with starting time of 30 min [28]. The regional volume of distribution (VT, mL/cm^3) was derived in each case.

[4] = biological target: T1, GluN2B subunits of the NMDA receptor; experiment: PET blocking studies and occupancy (Lassen) plot with (R)-[^18F]OF-Me-NB1; format: in vivo, rhesus monkeys (Macaca mulatta); details: for VT, cerebellum / VT, cingulate cortex / VT, frontal cortex / VT, hippocampus / VT, semiovale / VT, thalamus: MA1; for Non-displaceable volume of distribution (VND): from occupancy plot with Co101,244 0.25 mg/kg; for Receptor occupancy (occupancy plot): tracer (R)-[^18F]OF-Me-NB1
Procedure: as §1, §3
For the blocking studies, occupancy plots were constructed using regional VT values at baseline and differences in VT between baseline and blocking scans. Percent target occupancy across the brain and non-displaceable volume of distribution (VND) was then determined from the resulting linear relationship, where the slope is the uniform receptor occupancy by the drug in the brain [29].

[5] = biological target: GluN2B subunit-containing NMDARs; details: cited from earlier work
[6] = Measurement of lipophilicity (log D7.4), 1-octanol/PBS; format: physicochemical; details: 1-octanol/PBS pH 7.4; n = 4
Procedure: Lipophilicity (log D7.4) was measured using the method previously reported. Log D7.4 was calculated as the ratio of decay-corrected radioactivity concentrations in 1-octanol and phosphate-buffered saline (PBS, pH = 7.4, Dulbecco). Six consecutive equilibrations were performed until a constant value of log D7.4 was obtained.

sigma-1 receptor = details: cited from earlier work
[7] = Vital signs monitoring during PET scans; format: in vivo, rhesus monkeys; details: after the injections of blocking drug and tracer for the blocking scan
Procedure: as §2

[8] = blocking with Co 101,244 (0.25 mg/kg), M1
[9] = blocking with Co 101,244 (0.25 mg/kg), M2
[10] = blocking with FTC-146 (0.027 mg/kg), M1
[11] = blocking with FTC-146 (0.125 mg/kg), M2
[12] = M1 (male), listed as (R)–[^18F]OF–Me–NB1

fraction unbound [1]: 0.018 | Parent fraction of total plasma activity ([2]; 30 min after tracer injection): 20% and ~ 20% | Parent fraction of total plasma activity ([2]; 90 min after tracer injection): ~ 10% | Peak uptake SUV across brain regions [3]: 3.0–4.5 | Time to peak brain uptake after tracer injection [3]: ≤ 15 min
SMILES: COc1ccc2c(c1)CCN(CCCCc1ccccc1[18F])C[C@H]2O [(S)-[^18F]OF-Me-NB1]

fraction unbound [1]: 0.012 ± 0.002 | VT, cerebellum [4, 8]: 6.9 mL/cm^3 | VT, cingulate cortex [4, 8]: 8.1 mL/cm^3 | VT, frontal cortex [4, 8]: 6.8 mL/cm^3 | VT, hippocampus [4, 8]: 6.9 mL/cm^3 | VT, semiovale [4, 8]: 8.6 mL/cm^3 | VT, thalamus [4, 8]: 6.8 mL/cm^3 | VT, cerebellum [4, 9]: 7.6 mL/cm^3 | VT, cingulate cortex [4, 9]: 7.9 mL/cm^3 | VT, frontal cortex [4, 9]: 7.4 mL/cm^3 | VT, hippocampus [4, 9]: 7.3 mL/cm^3 | VT, semiovale [4, 9]: 8.0 mL/cm^3 | VT, thalamus [4, 9]: 6.8 mL/cm^3 | VT, cerebellum [4, 10]: 9.3 mL/cm^3 | VT, cingulate cortex [4, 10]: 11.6 mL/cm^3 | VT, frontal cortex [4, 10]: 9.4 mL/cm^3 | VT, hippocampus [4, 10]: 10.5 mL/cm^3 | VT, semiovale [4, 10]: 9.5 mL/cm^3 | VT, thalamus [4, 10]: 9.4 mL/cm^3 | VT, cerebellum [4, 11]: 8.7 mL/cm^3 | VT, cingulate cortex [4, 11]: 10.1 mL/cm^3 | VT, frontal cortex [4, 11]: 9.2 mL/cm^3 | VT, hippocampus [4, 11]: 9.2 mL/cm^3 | VT, semiovale [4, 11]: 8.4 mL/cm^3 | VT, thalamus [4, 11]: 8.6 mL/cm^3 | Non-displaceable volume of distribution (VND) ([4]; female monkey (monkey 2)): 6.4 mL/cm^3 | Non-displaceable volume of distribution (VND) ([4]; male monkey (monkey 1)): 6.36 mL/cm^3 and 6.4 mL/cm^3 | logD [6]: 2.85 ± 0.01 | Parent fraction of total plasma activity ([2]; 30 min after tracer injection): ~ 30% | Parent fraction of total plasma activity ([2]; 90 min after tracer injection): 20% | BPND, cerebellum ([3]; M1 (male)): 0.4 | BPND, cingulate cortex ([3]; M1 (male)): 1.0 | BPND, frontal cortex ([3]; M1 (male)): 0.68 | BPND, hippocampus ([3]; M1 (male)): 0.73 | BPND, semiovale ([3]; M1 (male)): 0.43 | BPND, thalamus ([3]; M1 (male)): 0.48 | BPND, cerebellum [3, 12]: 0.40 | BPND, cingulate cortex [3, 12]: 1.01 | BPND, cerebellum ([3]; M2 (female)): 0.43 | BPND, cingulate cortex ([3]; M2 (female)): 0.90 | BPND, frontal cortex ([3]; M2 (female)): 0.60 | BPND, hippocampus ([3]; M2 (female)): 0.60 | BPND, semiovale ([3]; M2 (female)): 0.48 | BPND, thalamus ([3]; M2 (female)): 0.50 | Peak uptake SUV across brain regions [3]: 4.5–6.5 | Time to peak brain uptake after tracer injection [3]: ≤ 20 min | VT, cerebellum ([3]; M1): 8.9 mL/cm^3 | VT, cingulate cortex ([3]; M1): 12.8 mL/cm^3 | VT, frontal cortex ([3]; M1): 10.7 mL/cm^3 | VT, hippocampus ([3]; M1): 11.0 mL/cm^3 | VT, semiovale ([3]; M1): 9.1 mL/cm^3 | VT, thalamus ([3]; M1): 9.4 mL/cm^3 | VT, cerebellum ([3]; M2): 9.2 mL/cm^3 | VT, cingulate cortex ([3]; M2): 12.2 mL/cm^3 | VT, frontal cortex ([3]; M2): 10.3 mL/cm^3 | VT, hippocampus ([3]; M2): 10.3 mL/cm^3 | VT, semiovale ([3]; M2): 9.5 mL/cm^3 | VT, thalamus ([3]; M2): 9.6 mL/cm^3 | BPND in most brain regions ([3]; rhesus monkeys): > 0.5
SMILES: COc1ccc2c(c1)CCN(CCCCc1ccccc1[18F])C[C@@H]2O [(R)-[^18F]OF-Me-NB1]
Ki ([5]; read-out: Ki, binding affinity to GluN2B): 4 nM | Ki (sigma-1 receptor): 100 nM

Receptor occupancy (occupancy plot) ([4]; Co101,244 0.25 mg/kg, female monkey (monkey 2)): 68% | Receptor occupancy (occupancy plot) ([4]; Co101,244 0.25 mg/kg, male monkey (monkey 1)): 77%
SMILES: Cc1ccc(CC2(O)CCN(CCOc3ccc(O)cc3)CC2)cc1 [Co101,244, reference compound]
Effect of pretreatment on parent fraction of (R)-[^18F]OF-Me-NB1 in plasma [2]: appeared to accelerate the decrease in parent fraction | Blood pressure drop [7]: ~ 20%

Receptor occupancy (occupancy plot) ([4]; FTC-146 0.125 mg/kg, female monkey (monkey 2)): 33% | Effect of pretreatment on parent fraction of (R)-[^18F]OF-Me-NB1 in plasma [2]: had little effect
SMILES: O=c1sc2cc(CCCF)ccc2n1CCN1CCCCCC1 [FTC-146, reference compound]
Blood pressure drop [7]: ~ 20%

SMILES: CC(C(O)c1ccc(O)cc1)N1CCC(Cc2ccccc2)CC1 (centres unmarked) [Ifenprodil, reference compound]
Ki ([5]; read-out: Ki, GluN2B subunit-containing NMDARs): 10 nM
